≈ marks a conversion by molar mass, not a printed value. Read-outs that look alike come from different tables or passages of the source.
Experiments:
[1] = tested on: Staphylococcus aureus 697 E; assay: In vitro anti-bacterial activity test (MIC, two-fold dilution method), Table 2 strains; assay type: cell-based; details: Table 2 strain 10: Staphylococcus aureus 697 E
[2] = tested on: Klebsiella aerogenes 1522 E; assay: In vitro anti-bacterial activity test (MIC, two-fold dilution method) against the standard strains; assay type: cell-based; details: Table 1 strain 18: Klebsiella aerogenes 1522 E
[3] = tested on: Staphylococcus aureus 711 E; assay: In vitro anti-bacterial activity test (MIC, two-fold dilution method), Table 2 strains; assay type: cell-based; details: Table 2 strain 17: Staphylococcus aureus 711 E; read-out: MIC
[4] = tested on: Enterobacter cloacae 1321 E; assay: In vitro anti-bacterial activity test (MIC, two-fold dilution method) against the standard strains; assay type: cell-based; details: Table 1 strain 20: Enterobacter cloacae 1321 E
[5] = tested on: Staphylococcus aureus 208 E; assay: In vitro anti-bacterial activity test (MIC, two-fold dilution method), Table 2 strains; assay type: cell-based; details: Table 2 strain 3: Staphylococcus aureus 208 E; read-out: MIC
[6] = tested on: Staphylococcus aureus 694 E; assay: as above; assay type: cell-based; details: Table 2 strain 8: Staphylococcus aureus 694 E; read-out: MIC
[7] = tested on: Staphylococcus aureus SG 511; assay: In vitro anti-bacterial activity test (MIC, two-fold dilution method) against the standard strains; assay type: cell-based; details: SG511; Table 1 strain 4: Staphylococcus aureus SG 511
[8] = tested on: Staphylococcus aureus 707 E; assay: In vitro anti-bacterial activity test (MIC, two-fold dilution method), Table 2 strains; assay type: cell-based; details: Table 2 strain 15: Staphylococcus aureus 707 E; read-out: MIC
[9] = tested on: Staphylococcus aureus 256 E; assay: as above; assay type: cell-based; details: Table 2 strain 4: Staphylococcus aureus 256 E
[10] = tested on: Staphylococcus aureus 725 E; assay: as above; assay type: cell-based; details: Table 2 strain 19: Staphylococcus aureus 725 E; read-out: MIC
[11] = tested on: Streptococcus pyogenes 77 A; assay: In vitro anti-bacterial activity test (MIC, two-fold dilution method) against the standard strains; assay type: cell-based; details: Table 1 strain 2: Streptococcus pyogenes 77 A; read-out: MIC
[12] = tested on: Klebsiella aerogenes 1082 E; assay: as above; assay type: cell-based; details: Table 1 strain 17: Klebsiella aerogenes 1082 E
[13] = tested on: Escherichia coli DC 0; assay: as above; assay type: cell-based; details: DC0; Table 1 strain 8: Escherichia coli DC 0
[14] = tested on: Pseudomonas aeruginosa 1771 M; assay: as above; assay type: cell-based; details: Table 1 strain 15: Pseudomonas aeruginosa 1771 M
[15] = tested on: Streptococcus pyogenes 308 A; assay: as above; assay type: cell-based; details: Table 1 strain 1: Streptococcus pyogenes 308 A
[16] = tested on: Escherichia coli OTEM; assay: as above; assay type: cell-based; details: Table 1 strain 10: Escherichia coli OTEM
[17] = tested on: Streptococcus faecium MD 8b; assay: as above; assay type: cell-based; details: Enterococcus faecium, MD8B; Table 1 strain 3: Streptococcus faecium MD 8b; read-out: MIC
[18] = tested on: Staphylococcus aureus 703 E; assay: In vitro anti-bacterial activity test (MIC, two-fold dilution method), Table 2 strains; assay type: cell-based; details: Table 2 strain 12: Staphylococcus aureus 703 E; read-out: MIC
[19] = tested on: Pseudomonas aeruginosa 1771; assay: In vitro anti-bacterial activity test (MIC, two-fold dilution method) against the standard strains; assay type: cell-based; details: Table 1 strain 14: Pseudomonas aeruginosa 1771
[20] = tested on: Salmonella typhimurium; assay: as above; assay type: cell-based; details: Salmonella enterica; Table 1 strain 16: Salmonella typhimurium
[21] = tested on: Pseudomonas aeruginosa 9027; assay: as above; assay type: cell-based; details: Table 1 strain 12: Pseudomonas aeruginosa 9027
[22] = tested on: Staphylococcus aureus 695 E; assay: In vitro anti-bacterial activity test (MIC, two-fold dilution method), Table 2 strains; assay type: cell-based; details: Table 2 strain 9: Staphylococcus aureus 695 E; read-out: MIC
[23] = tested on: Staphylococcus aureus 693 E; assay: as above; assay type: cell-based; details: Table 2 strain 7: Staphylococcus aureus 693 E; read-out: MIC
[24] = tested on: Staphylococcus aureus 705 E; assay: as above; assay type: cell-based; details: Table 2 strain 13: Staphylococcus aureus 705 E; read-out: MIC
[25] = tested on: Staphylococcus aureus 708 E; assay: as above; assay type: cell-based; details: Table 2 strain 16: Staphylococcus aureus 708 E
[26] = tested on: Staphylococcus aureus 701 E; assay: as above; assay type: cell-based; details: Table 2 strain 11: Staphylococcus aureus 701 E; read-out: MIC
[27] = tested on: Staphylococcus aureus 285; assay: In vitro anti-bacterial activity test (MIC, two-fold dilution method) against the standard strains; assay type: cell-based; details: Table 1 strain 5: Staphylococcus aureus 285; read-out: MIC
[28] = tested on: Pseudomonas aeruginosa 1592 E; assay: as above; assay type: cell-based; details: Table 1 strain 13: Pseudomonas aeruginosa 1592 E
[29] = tested on: Staphylococcus aureus 714 E; assay: In vitro anti-bacterial activity test (MIC, two-fold dilution method), Table 2 strains; assay type: cell-based; details: Table 2 strain 18: Staphylococcus aureus 714 E; read-out: MIC
[30] = tested on: Escherichia coli DC 2; assay: In vitro anti-bacterial activity test (MIC, two-fold dilution method) against the standard strains; assay type: cell-based; details: DC2; Table 1 strain 9: Escherichia coli DC 2; read-out: MIC
[31] = tested on: Escherichia coli DC 0; assay: as above; assay type: cell-based; details: DC0; Table 1 strain 7: Escherichia coli DC 0
[32] = tested on: Staphylococcus aureus 121 E; assay: In vitro anti-bacterial activity test (MIC, two-fold dilution method), Table 2 strains; assay type: cell-based; details: Table 2 strain 2: Staphylococcus aureus 121 E; read-out: MIC
[33] = tested on: Staphylococcus aureus 690 E; assay: as above; assay type: cell-based; details: Table 2 strain 5: Staphylococcus aureus 690 E; read-out: MIC
[34] = tested on: Staphylococcus aureus 706 E; assay: as above; assay type: cell-based; details: Table 2 strain 14: Staphylococcus aureus 706 E; read-out: MIC
[35] = tested on: P. mirabilis; assay: Preventive effect against the systemic infection; assay type: in vivo; details: Proteus mirabilis, 168 h, NMRI mice, survival on day 7, read-out: ED₅₀
Procedure: (§1) 10 fold of the pathogen which leads to 100% lethality were injected intraperitoneally to male and female NMRI mice weighing 18 to 20g. Immediately and after 4 hours, the dose of test compounds which was determined by two-fold serial dilution method was administered orally or subcutaneously; and on day 7, the effectiveness was evaluated in terms of ED₅₀ calculated from the number of survived mice by the probit analysis.

[36] = tested on: S. aureus 17740; assay: Preventive effect against the systemic infection; assay type: in vivo; details: Staphylococcus aureus, 168 h, NMRI mice, survival on day 7, read-out: ED₅₀
Procedure: as §1

[37] = tested on: Staphylococcus aureus 692 E; assay: In vitro anti-bacterial activity test (MIC, two-fold dilution method), Table 2 strains; assay type: cell-based; details: Table 2 strain 6: Staphylococcus aureus 692 E
[38] = tested on: Enterobacter cloacae P 99; assay: In vitro anti-bacterial activity test (MIC, two-fold dilution method) against the standard strains; assay type: cell-based; details: P99; Table 1 strain 19: Enterobacter cloacae P 99
[39] = tested on: Escherichia coli 1507 E; assay: as above; assay type: cell-based; details: Table 1 strain 11: Escherichia coli 1507 E
[40] = tested on: Staphylococcus aureus 503; assay: as above; assay type: cell-based; details: Table 1 strain 6: Staphylococcus aureus 503; read-out: MIC
[41] = tested on: Staphylococcus aureus 88 E; assay: In vitro anti-bacterial activity test (MIC, two-fold dilution method), Table 2 strains; assay type: cell-based; details: Table 2 strain 1: Staphylococcus aureus 88 E

CC1COc2c(N3CCN(C)CC3)c(F)cc3c(=O)c(C(=O)O)cn1c23 (stereo not shown) [Ofloxacin, ofloxacin, reference compound]
MIC [1]: 0.391 µg/mL (≈ 1.08 µM)
MIC [2]: 0.049 µg/mL (≈ 0.136 µM)
MIC [3]: 0.391 µg/mL (≈ 1.08 µM)
MIC [4]: 0.013 µg/mL (≈ 0.036 µM)
MIC [5]: 0.781 µg/mL (≈ 2.16 µM)
MIC [6]: 0.781 µg/mL (≈ 2.16 µM)
MIC [7]: 0.195 µg/mL (≈ 0.54 µM)
MIC [8]: 0.781 µg/mL (≈ 2.16 µM)
MIC [9]: 0.781 µg/mL (≈ 2.16 µM)
MIC [10]: 0.391 µg/mL (≈ 1.08 µM)
MIC [11]: 1.56 µg/mL (≈ 4.33 µM)
MIC [12]: < 0.002 µg/mL
MIC [13]: 0.391 µg/mL (≈ 1.08 µM)
MIC [14]: 0.391 µg/mL (≈ 1.08 µM)
MIC [15]: 3.12 µg/mL (≈ 8.65 µM)
MIC [16]: 0.049 µg/mL (≈ 0.136 µM)
MIC [17]: 0.781 µg/mL (≈ 2.16 µM)
MIC [18]: 0.781 µg/mL (≈ 2.16 µM)
MIC [19]: 1.56 µg/mL (≈ 4.33 µM)
MIC [20]: 0.025 µg/mL (≈ 0.0692 µM)
MIC [21]: 1.56 µg/mL (≈ 4.33 µM)
MIC [22]: 0.391 µg/mL (≈ 1.08 µM)
MIC [23]: 0.391 µg/mL (≈ 1.08 µM)
MIC [24]: 0.781 µg/mL (≈ 2.16 µM)
MIC [25]: 0.195 µg/mL (≈ 0.54 µM)
MIC [26]: 0.781 µg/mL (≈ 2.16 µM)
MIC [27]: 0.391 µg/mL (≈ 1.08 µM)
MIC [28]: 1.56 µg/mL (≈ 4.33 µM)
MIC [29]: 0.391 µg/mL (≈ 1.08 µM)
MIC [30]: 0.195 µg/mL (≈ 0.54 µM)
MIC [31]: 0.013 µg/mL (≈ 0.036 µM)
MIC [32]: 0.781 µg/mL (≈ 2.16 µM)
MIC [33]: 0.391 µg/mL (≈ 1.08 µM)
MIC [34]: 0.781 µg/mL (≈ 2.16 µM)
ED50 ([35]; Oral Administration): 2.21 mg/kg
ED50 ([35]; sc, Subcutaneous Injection): 0.33 mg/kg
ED50 ([36]; Oral Administration): > 200 mg/kg
ED50 ([36]; sc, Subcutaneous Injection): 200 mg/kg
MIC [37]: 0.391 µg/mL (≈ 1.08 µM)
MIC [38]: 0.025 µg/mL (≈ 0.0692 µM)
MIC [39]: 0.049 µg/mL (≈ 0.136 µM)
MIC [40]: 0.391 µg/mL (≈ 1.08 µM)
MIC [41]: 0.781 µg/mL (≈ 2.16 µM)

CNC1CC12CCN(c1c(F)cc3c(=O)c(C(=O)O)cn(C4CC4)c3c1F)C2 (stereo not shown) [Example 8, 7-(1-methylamino-5-azaspiro[2,4]heptane-5-yl)-1-cyclopropyl-6,8-difluoro-1,4-dihydro-4-oxo-quinoline-3-carboxylic acid]
MIC [1]: 0.049 µg/mL (≈ 0.126 µM)
MIC [2]: 0.098 µg/mL (≈ 0.252 µM)
MIC [3]: 0.049 µg/mL (≈ 0.126 µM)
MIC [4]: 0.025 µg/mL (≈ 0.0642 µM)
MIC [5]: 0.098 µg/mL (≈ 0.252 µM)
MIC [6]: 0.391 µg/mL (≈ 1 µM)
MIC [7]: 0.049 µg/mL (≈ 0.126 µM)
MIC [8]: 0.195 µg/mL (≈ 0.501 µM)
MIC [9]: 0.195 µg/mL (≈ 0.501 µM)
MIC [10]: 0.098 µg/mL (≈ 0.252 µM)
MIC [11]: 0.195 µg/mL (≈ 0.501 µM)
MIC [12]: 0.004 µg/mL (≈ 0.0103 µM)
MIC [13]: 0.391 µg/mL (≈ 1 µM)
MIC [14]: 0.391 µg/mL (≈ 1 µM)
MIC [15]: 0.391 µg/mL (≈ 1 µM)
MIC [16]: 0.049 µg/mL (≈ 0.126 µM)
MIC [17]: 0.195 µg/mL (≈ 0.501 µM)
MIC [18]: 0.195 µg/mL (≈ 0.501 µM)
MIC [19]: 1.56 µg/mL (≈ 4.01 µM)
MIC [20]: 0.049 µg/mL (≈ 0.126 µM)
MIC [21]: 1.56 µg/mL (≈ 4.01 µM)
MIC [22]: 0.049 µg/mL (≈ 0.126 µM)
MIC [23]: 0.049 µg/mL (≈ 0.126 µM)
MIC [24]: 0.195 µg/mL (≈ 0.501 µM)
MIC [25]: 0.049 µg/mL (≈ 0.126 µM)
MIC [26]: 0.195 µg/mL (≈ 0.501 µM)
MIC [27]: 0.049 µg/mL (≈ 0.126 µM)
MIC [28]: 1.56 µg/mL (≈ 4.01 µM)
MIC [29]: 0.049 µg/mL (≈ 0.126 µM)
MIC [30]: 0.098 µg/mL (≈ 0.252 µM)
MIC [31]: 0.013 µg/mL (≈ 0.0334 µM)
MIC [32]: 0.098 µg/mL (≈ 0.252 µM)
MIC [33]: 0.049 µg/mL (≈ 0.126 µM)
MIC [34]: 0.098 µg/mL (≈ 0.252 µM)
MIC [37]: 0.049 µg/mL (≈ 0.126 µM)
MIC [38]: 0.049 µg/mL (≈ 0.126 µM)
MIC [39]: 0.049 µg/mL (≈ 0.126 µM)
MIC [40]: 0.049 µg/mL (≈ 0.126 µM)
MIC [41]: 0.098 µg/mL (≈ 0.252 µM)

Reference: patent EP0550016A1, “Novel quinolone carboxylic acid derivatives and processes for preparing same” (KOREA RESEARCH INSTITUTE OF CHEMICAL TECHNOLOGY, priority 1991, dated 1993)
